In US20230085307A1, “PYRIDAZINONE COMPOUND AND HERBICIDE” (NISSAN CHEMICAL CORPORATION, priority 2019, published 2023):

Experiments:
barnyard grass [1] = assay: Test Example 3: herbicidal effect by foliage application, Wagner pot (Table 18, symbol H); format: in vivo, barnyard grass (Echinochloa crus-galli)
Method in brief: (§1)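 Plants were sown in alluvial soil held under 0.1–0.5 cm standing water and grown 14 days in a greenhouse at 25–30 °C. An emulsifiable formulation, water-diluted to the set dose, was then sprayed onto the foliage, and effects were scored three weeks later using previously defined criteria.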

Chinese sprangletop = assay: Test Example 3: herbicidal effect by foliage application, Wagner pot (Table 18, symbol D); format: in vivo, chinese sprangletop (Leptochloa chinensis)
Method in brief: as §1

rice flat sedge = assay: Test Example 3: herbicidal effect by foliage application, Wagner pot (Table 18, symbol E); format: in vivo, rice flat sedge (Cyperus iria)
Method in brief: as §1

southern crabgrass [2] = assay: Test Example 4: herbicidal effect by soil treatment (Table 19, symbol F); format: in vivo, southern crabgrass (Digitaria ciliaris); conditions: amount of applied herbicide 320 g/ha
Method in brief: (§2)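 Pre-emergence style soil spray: seeds under ~1.5 cm sterilized diluvial soil received a uniform coat of emulsion diluted to the predetermined herbicide amount. Greenhouse 25–30° C; readout at week three on previously defined criteria.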

green foxtail [3] = assay: Test Example 4: herbicidal effect by soil treatment (Table 19, symbol G); format: in vivo, green foxtail (Setaria viridis); conditions: amount of applied herbicide 320 g/ha
Method in brief: as §2

barnyard grass [4] = assay: Test Example 4: herbicidal effect by soil treatment (Table 19, symbol H); format: in vivo, barnyard grass (Echinochloa crus-galli); conditions: amount of applied herbicide 320 g/ha
Method in brief: as §2

wild oat [5] = assay: Test Example 4: herbicidal effect by soil treatment (Table 19, symbol I); format: in vivo, wild oat (Avena fatua); conditions: amount of applied herbicide 320 g/ha
Method in brief: as §2

blackgrass [6] = assay: Test Example 4: herbicidal effect by soil treatment (Table 19, symbol J); format: in vivo, blackgrass (Alopecurus myosuroides); conditions: amount of applied herbicide 320 g/ha
Method in brief: as §2

Italian ryegrass [7] = assay: Test Example 4: herbicidal effect by soil treatment (Table 19, symbol K); format: in vivo, Italian ryegrass (Lolium multiflorum); conditions: amount of applied herbicide 320 g/ha
Method in brief: as §2

windgrass [8] = assay: Test Example 4: herbicidal effect by soil treatment (Table 19, symbol L); format: in vivo, windgrass (Apera spica-venti); conditions: amount of applied herbicide 320 g/ha
Method in brief: as §2

velvetleaf [9] = assay: Test Example 4: herbicidal effect by soil treatment (Table 19, symbol M); format: in vivo, velvetleaf (Abutilon theophrasti); conditions: amount of applied herbicide 320 g/ha
Method in brief: as §2

redroot pigweed [10] = assay: Test Example 4: herbicidal effect by soil treatment (Table 19, symbol N); format: in vivo, redroot pigweed (Amaranthus retroflexus); conditions: amount of applied herbicide 320 g/ha
Method in brief: as §2

lambsquarters [11] = assay: Test Example 4: herbicidal effect by soil treatment (Table 19, symbol O); format: in vivo, lambsquarters (Chenopodium album); conditions: amount of applied herbicide 320 g/ha
Method in brief: as §2

chickweed [12] = assay: Test Example 4: herbicidal effect by soil treatment (Table 19, symbol P); format: in vivo, common chickweed (Stellaria media); conditions: amount of applied herbicide 320 g/ha
Method in brief: as §2

false cleavers = assay: Test Example 4: herbicidal effect by soil treatment (Table 19, symbol Q); format: in vivo, false cleavers (Galium spurium); conditions: amount of applied herbicide 320 g/ha
Method in brief: as §2

persian speedwell [13] = assay: Test Example 4: herbicidal effect by soil treatment (Table 19, symbol R); format: in vivo, Persian speedwell (Veronica persica); conditions: amount of applied herbicide 320 g/ha
Method in brief: as §2

southern crabgrass [14] = assay: Test Example 5: herbicidal effect by foliage application, plastic box (Table 20, symbol F); format: in vivo, southern crabgrass (Digitaria ciliaris); conditions: foliage application
Method in brief: (§3)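 Plants were sown into sterilized diluvial soil under about 1.5 cm cover and kept in a greenhouse at 25° C. to 30° C. Fourteen days on, foliage received an even spray of the diluted emulsion. Herbicidal or crop effect was judged three weeks afterwards.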

green foxtail [15] = assay: Test Example 5: herbicidal effect by foliage application, plastic box (Table 20, symbol G); format: in vivo, green foxtail (Setaria viridis); conditions: foliage application
Method in brief: as §3

barnyard grass [16] = assay: Test Example 5: herbicidal effect by foliage application, plastic box (Table 20, symbol H); format: in vivo, barnyard grass (Echinochloa crus-galli); conditions: foliage application
Method in brief: as §3

wild oat [17] = assay: Test Example 5: herbicidal effect by foliage application, plastic box (Table 20, symbol I); format: in vivo, wild oat (Avena fatua); conditions: foliage application
Method in brief: as §3

blackgrass [18] = assay: Test Example 5: herbicidal effect by foliage application, plastic box (Table 20, symbol J); format: in vivo, blackgrass (Alopecurus myosuroides); conditions: foliage application
Method in brief: as §3

Italian ryegrass [19] = assay: Test Example 5: herbicidal effect by foliage application, plastic box (Table 20, symbol K); format: in vivo, Italian ryegrass (Lolium multiflorum); conditions: foliage application
Method in brief: as §3

windgrass [20] = assay: Test Example 5: herbicidal effect by foliage application, plastic box (Table 20, symbol L); format: in vivo, windgrass (Apera spica-venti); conditions: foliage application
Method in brief: as §3

velvetleaf [21] = assay: Test Example 5: herbicidal effect by foliage application, plastic box (Table 20, symbol M); format: in vivo, velvetleaf (Abutilon theophrasti); conditions: foliage application
Method in brief: as §3

redroot pigweed [22] = assay: Test Example 5: herbicidal effect by foliage application, plastic box (Table 20, symbol N); format: in vivo, redroot pigweed (Amaranthus retroflexus); conditions: foliage application
Method in brief: as §3

lambsquarters [23] = assay: Test Example 5: herbicidal effect by foliage application, plastic box (Table 20, symbol O); format: in vivo, lambsquarters (Chenopodium album); conditions: foliage application
Method in brief: as §3

chickweed [24] = assay: Test Example 5: herbicidal effect by foliage application, plastic box (Table 20, symbol P); format: in vivo, common chickweed (Stellaria media); conditions: foliage application
Method in brief: as §3

persian speedwell [25] = assay: Test Example 5: herbicidal effect by foliage application, plastic box (Table 20, symbol R); format: in vivo, Persian speedwell (Veronica persica); conditions: foliage application
Method in brief: as §3

[26] = amount of applied herbicide 320 g/ha
[27] = 320 g/ha, evaluated 3 weeks after application
[28] = AAH 320 g/ha, three weeks after application

Cc1nn(C)c(=O)c(-c2c(-c3ccc(Cl)s3)oc3ccc(F)cc23)c1O [9-047]
Herbicidal effect on H (barnyard grass), foliage application (barnyard grass [1]; [26]): 2 (Herbicidal rate of 20% or more and less than 40%) | Herbicidal effect on D (Chinese sprangletop), foliage application (Chinese sprangletop; [26]): 0 (Herbicidal rate of 5% or less (almost no effect)) | Herbicidal effect on E (rice flat sedge), foliage application (rice flat sedge; [26]): 3 (Herbicidal rate of 40% or more and less than 70%) | F: southern crabgrass, herbicidal effect grade (southern crabgrass [2]): 0 (Herbicidal rate of 5% or less (almost no effect)) | G: green foxtail, herbicidal effect grade (green foxtail [3]): 0 (Herbicidal rate of 5% or less (almost no effect)) | H: barnyard grass, herbicidal effect grade (barnyard grass [4]): 0 (Herbicidal rate of 5% or less (almost no effect)) | I: wild oat, herbicidal effect grade (wild oat [5]): 0 (Herbicidal rate of 5% or less (almost no effect)) | J: blackgrass, herbicidal effect grade (blackgrass [6]): 0 (Herbicidal rate of 5% or less (almost no effect)) | K: Italian ryegrass, herbicidal effect grade (Italian ryegrass [7]): 4 (Herbicidal rate of 70% or more and less than 90%) | L: windgrass, herbicidal effect grade (windgrass [8]): 0 (Herbicidal rate of 5% or less (almost no effect)) | M: velvetleaf, herbicidal effect grade (velvetleaf [9]): 0 (Herbicidal rate of 5% or less (almost no effect)) | N: redroot pigweed, herbicidal effect grade (redroot pigweed [10]): 3 (Herbicidal rate of 40% or more and less than 70%) | O: lambsquarters, herbicidal effect grade (lambsquarters [11]): 0 (Herbicidal rate of 5% or less (almost no effect)) | P: chickweed, herbicidal effect grade (chickweed [12]): 0 (Herbicidal rate of 5% or less (almost no effect)) | Q: false cleavers, herbicidal effect grade (false cleavers): 0 (Herbicidal rate of 5% or less (almost no effect)) | R: persian speedwell, herbicidal effect grade (persian speedwell [13]): 1 (Herbicidal rate of 5% or more and less than 20%) | F (southern crabgrass) herbicidal effect grade (southern crabgrass [14]; [27]): 3 (Herbicidal rate of 40% or more and less than 70%) | G (green foxtail) herbicidal effect grade (green foxtail [15]; [27]): 2 (Herbicidal rate of 20% or more and less than 40%) | H (barnyard grass) herbicidal effect grade (barnyard grass [16]; [27]): 3 (Herbicidal rate of 40% or more and less than 70%) | I (wild oat) herbicidal effect grade (wild oat [17]; [27]): 1 (Herbicidal rate of 5% or more and less than 20%) | J (blackgrass) herbicidal effect grade (blackgrass [18]; [27]): 0 (Herbicidal rate of 5% or less (almost no effect)) | K (Italian ryegrass) herbicidal effect grade (Italian ryegrass [19]; [27]): 4 (Herbicidal rate of 70% or more and less than 90%) | L (windgrass) herbicidal effect grade (windgrass [20]; [27]): 0 (Herbicidal rate of 5% or less (almost no effect)) | M (velvetleaf) herbicidal effect grade (velvetleaf [21]; [27]): 2 (Herbicidal rate of 20% or more and less than 40%) | N (redroot pigweed) herbicidal effect grade (redroot pigweed [22]; [27]): 3 (Herbicidal rate of 40% or more and less than 70%) | O (lambsquarters) herbicidal effect grade (lambsquarters [23]; [27]): 1 (Herbicidal rate of 5% or more and less than 20%) | P (chickweed) herbicidal effect grade (chickweed [24]; [27]): 5 (Herbicidal rate of 90% or more (almost completely withered)) | R (persian speedwell) herbicidal effect grade (persian speedwell [25]; [27]): 4 (Herbicidal rate of 70% or more and less than 90%)

CCCC(=O)Oc1c(C)nn(C)c(=O)c1-c1c(-n2cc(Cl)cn2)sc2ccccc12 [Compound No. 1-098, 1,3-dimethyl-6-oxo-5-(2-(4-chloro-1H-pyrazol-1-yl)benzo[b]thiophen-3-yl)-1,6-dihydropyridazin-4-yl=(n-butyrate)]
herbicidal effect on H (barnyard grass), rating 0-5 (barnyard grass [1]; 320 g/ha): 0 (Herbicidal rate of 5% or less (almost no effect)) | herbicidal effect on D (Chinese sprangletop), rating 0-5 (Chinese sprangletop; 320 g/ha): 0 (Herbicidal rate of 5% or less (almost no effect)) | herbicidal effect on E (rice flat sedge), rating 0-5 (rice flat sedge; 320 g/ha): 4 (Herbicidal rate of 70% or more and less than 90%) | herbicidal effect rating, F: southern crabgrass (southern crabgrass [2]): 0 (Herbicidal rate of 5% or less (almost no effect)) | herbicidal effect rating, G: green foxtail (green foxtail [3]): 0 (Herbicidal rate of 5% or less (almost no effect)) | herbicidal effect rating, H: barnyard grass (barnyard grass [4]): 0 (Herbicidal rate of 5% or less (almost no effect)) | herbicidal effect rating, I: wild oat (wild oat [5]): 0 (Herbicidal rate of 5% or less (almost no effect)) | herbicidal effect rating, J: blackgrass (blackgrass [6]): 0 (Herbicidal rate of 5% or less (almost no effect)) | herbicidal effect rating, K: Italian ryegrass (Italian ryegrass [7]): 0 (Herbicidal rate of 5% or less (almost no effect)) | herbicidal effect rating, L: windgrass (windgrass [8]): 0 (Herbicidal rate of 5% or less (almost no effect)) | herbicidal effect rating, M: velvetleaf (velvetleaf [9]): 3 (Herbicidal rate of 40% or more and less than 70%) | herbicidal effect rating, N: redroot pigweed (redroot pigweed [10]): 0 (Herbicidal rate of 5% or less (almost no effect)) | herbicidal effect rating, O: lambsquarters (lambsquarters [11]): 4 (Herbicidal rate of 70% or more and less than 90%) | herbicidal effect rating, P: chickweed (chickweed [12]): 3 (Herbicidal rate of 40% or more and less than 70%) | herbicidal effect rating, Q: false cleavers (false cleavers): 0 (Herbicidal rate of 5% or less (almost no effect)) | herbicidal effect rating, R: persian speedwell (persian speedwell [13]): 0 (Herbicidal rate of 5% or less (almost no effect)) | F: southern crabgrass, herbicidal effect (southern crabgrass [14]; [28]): 0 (Herbicidal rate of 5% or less (almost no effect)) | G: green foxtail, herbicidal effect (green foxtail [15]; [28]): 2 (Herbicidal rate of 20% or more and less than 40%) | H: barnyard grass, herbicidal effect (barnyard grass [16]; [28]): 3 (Herbicidal rate of 40% or more and less than 70%) | I: wild oat, herbicidal effect (wild oat [17]; [28]): 0 (Herbicidal rate of 5% or less (almost no effect)) | J: blackgrass, herbicidal effect (blackgrass [18]; [28]): 0 (Herbicidal rate of 5% or less (almost no effect)) | K: Italian ryegrass, herbicidal effect (Italian ryegrass [19]; [28]): 2 (Herbicidal rate of 20% or more and less than 40%) | L: windgrass, herbicidal effect (windgrass [20]; [28]): 0 (Herbicidal rate of 5% or less (almost no effect)) | M: velvetleaf, herbicidal effect (velvetleaf [21]; [28]): 0 (Herbicidal rate of 5% or less (almost no effect)) | N: redroot pigweed, herbicidal effect (redroot pigweed [22]; [28]): 5 (Herbicidal rate of 90% or more (almost completely withered)) | O: lambsquarters, herbicidal effect (lambsquarters [23]; [28]): 5 (Herbicidal rate of 90% or more (almost completely withered)) | P: chickweed, herbicidal effect (chickweed [24]; [28]): 5 (Herbicidal rate of 90% or more (almost completely withered)) | R: persian speedwell, herbicidal effect (persian speedwell [25]; [28]): 3 (Herbicidal rate of 40% or more and less than 70%)
